Values quoted from earlier work, collected in patent US20160106679A1, “TABLET WITH INCREASED DRUG LOAD OF ODANACATIB” (SANDOZ AG, priority 2013, published 2016).
Where two headings read alike, the source gives them in different places.

Experiments:
[1] = highly crystalline odanacatib

aqueous solubility [1]: low
Compound: CC(C)(F)C[C@H](N[C@@H](c1ccc(-c2ccc(S(C)(=O)=O)cc2)cc1)C(F)(F)F)C(=O)NC1(C#N)CC1 [Odanacatib, odanacatib]
BMD change at lumbar spine, hip and femoral neck (patients; patients treated once weekly with 20-50 mg): increases in lumbar spine, hip and femoral neck BMD
BMD change at lumbar spine, hip and femoral neck (patients; patients treated with low doses): decreases in BMD at the same sites
